The values that follow come from patent US20260241008A1, “COMPOSITION CONTAINING SELF-ASSEMBLED STRUCTURE AND FREEZE-DRIED PRODUCT THEREOF” (Resonac Corporation, priority 2023, published 2026).

Molecules are shown by their SMILES.

A short description of this series: Krafft point of TPNa aqueous solution. Format: physicochemical.

`Cc1c(C)c2c(c(C)c1OP(=O)([O-])[O-])CCC(C)(CCCC(C)CCCC(C)CCCC(C)C)O2.[Na+].[Na+]` (racemic) [TPNa, sodium salt of the dl-α-tocopheryl phosphate]: the “Krafft point (Kp)” value was determined as 16.2 °C.
